Measured values published in paper PMC3057995, “Potent Anti-Tumor Effect Generated by a Novel Human Papillomavirus (HPV) Antagonist Peptide Reactivating the pRb/E2F Pathway” (PLoS ONE, 2011).

Tests used:
[1] = test system: HPV16E7/pRb interaction; experiment: Co-IP of HPV16 E7 and pRb in Cos7 cells; format: cell-based; settings: Cos7 co-transfected, 80 µM Pep-7
Protocol: For Co-IP, Cos-7 cells seeded in 100 mm plates were co-transfected with HPV16E7-pEYFP-N1 and pRb-pcDNA3.1 using the PEI reagent (Sigma-aldich Chemie GmbH, Steinheim, Germany) described previously. […] Lysate supernate prepared as above were incubated with 10 µl rabbit anti-pRb antibody or mouse anti-flag (negative control) antibody and washed protein G agarose beads (Amersham Biosciences, Little Chalfont, UK) overnight at 4°C under continuous agitation. Beads were subsequently washed four times with the lysis buffer. Bound proteins were eluted by boiling in a Laemmli sample buffer and subjected to western blot assay.

[2] = test system: pRb; experiment: pRb phosphorylation Western blot; format: cell-based; settings: SiHa, 80 µM, 24 h
[3] = test system: HPV16 E7 protein; settings: peptides 0.08 µM to 800 µM vs HPV16E7 mAb; mean ± SE, three independent experiments
Protocol: HPV16E7 mAb alone, incubated with the coated E7 protein, gave the benchmark absorption value. Absorbance values and inhibitory ratio were collected and calculated as outlined in Materials and Methods.
The specificity and affinity of the positive clones and synthetic peptides were determined by competitive ELISA. 400 ng/well HPV16 E7 protein was coated overnight in microtiter wells at 4°C. The positive clones or peptides at different concentrations mixed with HPV16E7 mAb were incubated with the coated E7 protein in microtiter wells for 3 h. The mixture at the same concentration of the library phage and HPV16E7 mAb was set as negative control. […] HPV16E7 mAb alone at the same concentration, incubated with the coated E7 protein, gave benchmark absorption. The inhibitory ratio was calculated by the following formula: Inhibitory ratio = 100%−(A450 of mixture well/A450 of mAb alone well)×100%.

[4] = test system: CaSki cells; experiment: Clonogenic assay, CaSki; format: cell-based; settings: 14 days
Protocol: Cells were seeded in DMEM at 1×10^3 cells/well density in 12-well plates and allowed to attach to the substrate overnight. Thereafter, cells were treated with 0 µM, 16 µM, 32 µM, 80 µM, and 160 µM peptide in DMEM, and the medium was changed every three days. The plates were observed daily for colony formation. After 8 (for HeLa cells) or 14 (for SiHa and CaSki cells) days of treatment, the cultures were washed three times with PBS and stained with crystal violet in ethanol for 15 min. The colonies were then counted and photographed with the Alphalmager® EP image acquisition system (Alpha Innotech, Santa Clara, CA, USA).

[5] = test system: SiHa cells; experiment: MTT cell viability assay, SiHa; format: cell-based; settings: HPV16-positive, 80 µM in Fig. 3C, medium replaced daily, A540, mean ± SE, at least two independent runs in sextuplicate
Protocol: (§1) Cell viability was determined with an MTT assay. Briefly, the cells were seeded into 96-well plates at a density of 4–5×10^3 cells/well. The cells were allowed to recover for 24 h before the medium was replaced with DMEM supplemented with peptides at different concentrations. The solvent of the peptides was set as the control. The peptide-supplemented medium was replaced daily and the respective concentrations were maintained. The cells were subjected to an MTT cell proliferation assay at different time points. The plates were incubated at 37°C for 3 h with the addition of 20 µl/well MTT (5 mg/ml). Untransformed MTT in the solution was removed by aspiration. The formazan product was dissolved in DMSO, and plates were shaken vigorously at room temperature for 10–15 min to ensure complete solubilization. The optical density of the formazan solutions was measured by microplate reader at 540 nm.

[6] = test system: SiHa tumor xenografts; experiment: Subcutaneous tumor model in nude mice; format: in vivo, mouse (Balb/C-nu/nu); settings: 400 and 800 µg/mouse i.v., 16 days, p<0.01
Protocol: A subcutaneous tumor model of nude mice was constructed. In brief, six-week-old female nude mice (18±2 g) were subcutaneously inoculated with 1.5×10^7 SiHa cells. When the tumor size reached about 100 mm^2, the mice were randomly divided into four groups with 5 mice each, namely, control group, low-dose group, middle-dose group, and high-dose group. […] The mice were raised for another 3 weeks. Tumor sizes were measured with a caliper every three days and tumor volume was calculated using “volume = length×width^2/2.” At the end of the experiment, all mice were sacrificed and the weights of the detached tumors were measured. Tumor growth inhibition ratio was represented as the tumor weight relative to the control, calculated using the formula, “Relative tumor weight (% of control) = average tumor weight of treatment group/average tumor weight of control group×100%.”

[7] = test system: CaSki cells; experiment: qRT-PCR, CaSki; format: cell-based; settings: 80 µM
Protocol: Total RNA was extracted from the cultured cells using TRIzol reagent (Invitrogen, Carlsbad, CA,USA) according to the manufacturer's instructions. qRT-PCR was used to confirm the expression levels of mRNAs. Reverse transcription and qPCR were performed according to the protocol of Reverse Transcriptase System™ and SYBR® premix Ex Taq™ (Perfect Real Time) (TaKaRa, Dalian, P.R. China) on the ABI 7300 Real Time PCR System (Applied Biosystems, Foster City, CA, USA) supplied with analytical software. β-actin mRNA levels were used for normalization. Each sample was determined in triplicate. The results represent means ± SE from three experiment runs.

[8] = test system: HaCat human keratinocyte cells; experiment: MTT cell viability assay, HaCat; format: cell-based; settings: HPV-negative, data not shown
Text: HPV16-positive SiHa and CaSki cervical carcinoma cells were supplied by China Center for Type Culture Collection (CCTCC). The following cell lines used in this project were from our laboratory: HPV18-positive HeLa cervical carcinoma cells, CNE nasopharyngeal carcinoma cells, HaCat human keratinocyte cells, COS7 (African green monkey SV40-transformed kidney fibroblast cell line), 293T (human kidney epithelial cells), and NIH/3T3 mouse embryonic fibroblast cells. All cells were maintained in a humidified atmosphere of 5% CO2, Dulbecco's modified Eagle's medium (DMEM, pH 7.2), supplemented with 10% fetal calf serum (FCS).
as §1, with “The formazan product was dissolved in DMSO, and plates were shaken vigorously at room temperature for 10–15 min to ensure complete solubilization.” left out

SACPKGLDWCGG (C&C bridged by disulfide bonds) (disulfide) [Pep-7]
co-immunoprecipitation of HPV16E7 with pRb [1]: HPV16E7 could not be immunoprecipitated by the pRb antibodies
phosphorylation of pRb [2]: not affected significantly
binding to HPV16 E7 [3]: bound to HPV16 E7 with high affinity compared with the control peptide N-pep
colony formation ([4]; 16-160 µM): inhibited
concentration up to which colony number difference vs control became significant (p<0.02) ([4]; vs 0 µM group, three independent experiments): 32 µM
cell proliferation (MTT) [5]: repressed significantly by Pep-7 in a dose- and time-dependent manner
anti-tumor efficacy [6]: significant anti-tumor efficacy
cyclins A, D1 and E1 RNA expression [7]: significantly reduced
pRb and HPV16E7 RNA levels [7]: not affected
cell proliferation (MTT) [8]: negligible effect
